Patent US6511963B1 (priority 1992, dated 2003)
Several values for one entry are separate records, joined by “and”; a condition that tells them apart may be missing. Equal values may be shown once. Read-outs that look alike come from different tables or passages of the source. Ends that are not written are not given here. Peptide text beside a SMILES is read from it.

Columns and labels:
NMDA receptor [1] = molecular target: NMDA receptor; design: species or system rat; details: read-out: EC50 of Gly, [3H]MK-801 binding
NMDA receptor [2] = molecular target: T1, NMDA receptor (Rattus norvegicus, UniProt P35439+Q00960); test: biochemical; format: binding
T1 construct: other: test compound in the absence of spermine; concentration at 50% of maximum stimulation; % Sti; spermine = 100; other: with and without spermine; absence of spermine; % STI; absence
T1 sequence (Q00960 27-1482, other chains not shown): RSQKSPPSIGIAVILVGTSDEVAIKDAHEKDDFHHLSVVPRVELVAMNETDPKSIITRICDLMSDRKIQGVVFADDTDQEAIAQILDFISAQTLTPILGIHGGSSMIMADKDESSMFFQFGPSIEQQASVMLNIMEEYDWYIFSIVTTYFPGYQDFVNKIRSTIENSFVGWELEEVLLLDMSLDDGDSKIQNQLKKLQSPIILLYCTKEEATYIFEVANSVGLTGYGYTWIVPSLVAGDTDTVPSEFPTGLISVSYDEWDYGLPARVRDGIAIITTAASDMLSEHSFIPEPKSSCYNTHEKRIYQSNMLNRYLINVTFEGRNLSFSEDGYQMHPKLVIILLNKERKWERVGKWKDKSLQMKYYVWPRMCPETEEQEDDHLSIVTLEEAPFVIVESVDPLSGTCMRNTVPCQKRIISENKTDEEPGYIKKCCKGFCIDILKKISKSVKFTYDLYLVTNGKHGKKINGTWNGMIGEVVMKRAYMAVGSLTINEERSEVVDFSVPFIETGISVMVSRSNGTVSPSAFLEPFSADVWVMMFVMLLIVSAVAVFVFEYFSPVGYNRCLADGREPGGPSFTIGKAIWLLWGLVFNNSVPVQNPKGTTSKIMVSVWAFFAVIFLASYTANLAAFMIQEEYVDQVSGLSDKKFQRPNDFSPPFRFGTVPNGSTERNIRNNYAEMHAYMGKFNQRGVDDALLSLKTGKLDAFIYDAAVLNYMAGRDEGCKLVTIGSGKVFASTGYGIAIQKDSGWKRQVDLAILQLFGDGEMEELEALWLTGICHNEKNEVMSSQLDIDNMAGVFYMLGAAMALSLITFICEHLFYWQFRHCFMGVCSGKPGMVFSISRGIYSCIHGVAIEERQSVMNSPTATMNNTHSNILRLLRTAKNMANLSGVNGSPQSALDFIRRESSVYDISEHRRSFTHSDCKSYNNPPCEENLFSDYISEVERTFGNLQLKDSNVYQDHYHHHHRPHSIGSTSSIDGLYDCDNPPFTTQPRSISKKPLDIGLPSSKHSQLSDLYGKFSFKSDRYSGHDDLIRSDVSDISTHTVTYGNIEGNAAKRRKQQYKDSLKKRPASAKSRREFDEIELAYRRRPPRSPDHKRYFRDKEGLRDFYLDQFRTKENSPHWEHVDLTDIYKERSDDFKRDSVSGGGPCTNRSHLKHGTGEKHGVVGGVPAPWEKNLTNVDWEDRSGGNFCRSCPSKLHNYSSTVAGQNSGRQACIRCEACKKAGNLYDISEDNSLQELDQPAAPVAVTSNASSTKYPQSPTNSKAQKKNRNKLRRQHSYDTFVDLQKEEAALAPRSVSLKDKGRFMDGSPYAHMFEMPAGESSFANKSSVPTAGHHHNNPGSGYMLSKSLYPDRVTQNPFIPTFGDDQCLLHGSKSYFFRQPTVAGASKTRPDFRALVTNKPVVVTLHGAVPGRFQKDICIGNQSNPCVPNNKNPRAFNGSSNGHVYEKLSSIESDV

NMDA receptor [3] = format: binding, rat

Row | Compound | % Inh (NMDA receptor [3]) | % Sti (NMDA receptor [2]) | other results
1 | NCC(=O)O [Gly, glycine] | – | – | EC50 (NMDA receptor [1]): 0.056 µM and 0.058 µM
2 | CC[C@H](C)[C@H](NC(=O)[C@H](CC(C)C)NC(=O)[C@H](CC(C(=O)O)C(=O)O)NC(=O)[C@H](CCC(N)=O)NC(=O)[C@H](CC(N)=O)NC(=O)[C@H](CC(C(=O)O)C(=O)O)NC(=O)[C@H](CCC(N)=O)NC(=O)[C@H](CC(C)C)NC(=O)[C@H](CC(C(=O)O)C(=O)O)NC(=O)[C@H](CC(C(=O)O)C(=O)O)NC(=O)[C@H](CCC(=O)O)NC(=O)CN)C(=O)N[C@@H](CCCNC(=N)N)C(=O)N[C@@H](COP(=O)(O)O)C(=O)N[C@@H](CCCCN)C(=O)N[C@@H](CO)C(=O)N[C@@H](CC(N)=O)C(N)=O [Ser(p)14-Con-G, GEggLQgNQgLIRS(p)KSN] | 31 ± 0.5% | – | % Sti (NMDA receptor [2]; forebrain membranes): 0%; inhibition of [3H]MK-801 binding produced by maximally effective spermine (NMDA receptor [3]): 31%; IC50 (NMDA receptor [3]; read-out: IC50, inhibition of spermine-enhanced [3H]MK-801 binding): 1.12 ± 0.05 µM
3 | NCCCCNCCCN [Spermidine, reference compound] | 0% | – | Emax (NMDA receptor [2]; read-out: % Sti): 97%
4 | NCCCNCCCCNCCCN [Spermine, reference compound] | 0% | – | % Sti (NMDA receptor [2]; forebrain membranes): 100%
5 | CC[C@H](C)[C@H](NC(=O)[C@H](CC(C)C)NC(=O)[C@H](CCC(=O)O)NC(=O)[C@H](CCC(N)=O)NC(=O)[C@H](CC(N)=O)NC(=O)[C@H](CCC(=O)O)NC(=O)[C@H](CCC(N)=O)NC(=O)[C@H](CC(C)C)NC(=O)[C@H](CCC(=O)O)NC(=O)[C@H](CCC(=O)O)NC(=O)[C@H](CCC(=O)O)NC(=O)CNC(=O)[C@@H](N)Cc1ccc(O)cc1)C(=O)N[C@@H](CCCNC(=N)N)C(=O)N[C@@H](CCC(=O)O)C(=O)N[C@@H](CCCCN)C(=O)N[C@@H](CO)C(=O)N[C@@H](CC(N)=O)C(N)=O [Tyr^o-Glu3,4,7,10,14-Con-G] | 0% | – | stimulation of [3H]MK-801 binding in the absence of spermine (NMDA receptor [2]): stimulated; Emax (NMDA receptor [2]; read-out: % Sti): 31%; inhibition of spermine-induced [3H]MK-801 binding (NMDA receptor [3]): no inhibition
6 | CC[C@H](C)[C@H](NC(=O)[C@H](CC(C)C)NC(=O)[C@H](C)NC(=O)[C@H](CC(C)C)NC(=O)[C@H](C)NC(=O)[C@H](C)NC(=O)[C@H](CCC(N)=O)NC(=O)[C@H](CC(C)C)NC(=O)[C@H](CC(C(=O)O)C(=O)O)NC(=O)[C@H](CC(C(=O)O)C(=O)O)NC(=O)[C@H](CCC(=O)O)NC(=O)CN)C(=O)N[C@@H](CCCNC(=N)N)C(=O)N[C@@H](C)C(=O)N[C@@H](CCCCN)C(=O)N[C@@H](CO)C(=O)N[C@@H](CC(N)=O)C(N)=O [alpha helix ConG, GEggLQAALALJRAKSN] (HELM PEPTIDE1{G.E.[O=C(O)C(C[C@H](N[*:1])C(=O)[*:2])C(=O)O].[O=C(O)C(C[C@H](N[*:1])C(=O)[*:2])C(=O)O].L.Q.A.A.L.A.L.I.R.A.K.S.N.[am]}$$$$V2.0) | 100% | – | Emax (NMDA receptor [2]; read-out: % Sti): 0%; IC50 (NMDA receptor [3]; read-out: Spermine IC): 1.5 µM
7 | CC[C@H](C)[C@H](NC(=O)[C@H](CC(C)C)NC(=O)[C@H](CC(C(=O)O)C(=O)O)NC(=O)[C@H](CCC(N)=O)NC(=O)[C@H](CC(N)=O)NC(=O)[C@H](Cc1cc(I)c(O)c(I)c1)NC(=O)[C@H](CCC(N)=O)NC(=O)[C@H](CC(C)C)NC(=O)[C@H](CC(C(=O)O)C(=O)O)NC(=O)[C@H](CC(C(=O)O)C(=O)O)NC(=O)[C@H](CCC(=O)O)NC(=O)CN)C(=O)N[C@@H](CCCNC(=N)N)C(=O)N[C@@H](CC(C(=O)O)C(=O)O)C(=O)N[C@@H](CCCCN)C(=O)N[C@@H](CO)C(=O)N[C@@H](CC(N)=O)C(N)=O [di-iodo-Tyr7-Con-G, GEggLQY(JI)NQgLIRgKSN] | 100% | – | Emax (NMDA receptor [2]; read-out: % Sti): 0%; IC50 (NMDA receptor [3]; read-out: Spermine IC): 0.5 µM
8 | Ac-GEggLQgNQgLIRgKSN [Ac-Con-G] | 0% | 0% | activity, inhibitory or stimulatory (NMDA receptor [2]): no apparent activity
9 | EEELQENQELIREKSN-NH2 [Glu3,4,7,10-Con-G(2-17)] | 70% | – | Emax (NMDA receptor [2]; read-out: % STI): 33%; Emax (NMDA receptor [2]; read-out: % Sti): 33%; % INH (NMDA receptor [3]): 70%; IC50 (NMDA receptor [3]; read-out: IC50): 5.4 µM; IC50 (NMDA receptor [3]; read-out: Spermine IC): 5.4 µM
10 | F(pC1)-GEggLQgNQgLIRgKSN (FGEXXLQXNQXLIRXKSN; N-terminal p-chloro-Phe; gamma-carboxyglutamate residues) [Phe(pCl)^o-Con-G] | 0% | 0% | –
11 | GEYgLQgNQgLIRgKSN [Tyr3-Con-G] | 0% | 0% | –
12 | GEgALQgNQgLJRgKSN (GEXALQXNQXLIRXKSN; gamma-carboxyglutamate residues) [Ala4-Con-G] | 0% | 0% | –
13 | GEgELQgNQgLJRgKSN (GEXELQXNQXLIRXKSN; gamma-carboxyglutamate residues) [Glu4-Con-G] | 0% | 0% | –
14 | GEgS(p)LQgNQgLIRgKSN (GEXSLQXNQXLIRXKSN; phosphoserine) [Ser(p)4-Con-G] | 0% | 0% | –
15 | GEgSLQgNQgLJRgKSN [Ser4-Con-G] | 0% | 0% | –
16 | GEggLQgNQgLIRgKSN-OH [Con-G-OH] | 0% | 0% | activity, inhibitory or stimulatory (NMDA receptor [2]): no activity
17 | QELIREKSN [Glul0,14-Con-G(9-17)] | 0% | 0% | –
18 | QENQELIREKSN [Glu 7,10,14-Con-G (6-17)] | 0% | 0% | –
19 | Y(oMe)-GEggLQgNQgLIRgKSN (YGEXXLQXNQXLIRXKSN; O-methyl tyrosine) [Tyr(oMe)^o-Con-G] | 0% | 0% | –
20 | Y(p)-GEggLQgNQgLIRgKSN (YGEXXLQXNQXLIRXKSN; phosphotyrosine) [Tyr(p)^o-Con-G] | 0% | 0% | –
21 | Y-GEggLQgNQgLIRgKSN [Tyr^o-Con-G] | 0% | 0% | –
